# Tests used:
# potassium arsenate = compound: O=[As]([O-])(O)O.[K+] [potassium arsenate]; test: thermal stability z-score vs DMSO; higher = more thermally stabilized by treatment; details: HeLa; arsenate concentration 1 mM
# Method: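 Cellular thermal proteome profiling in HeLa cells treated with 1 mM arsenate for 1 h (DMSO pretreatment), heated to ten temperatures (37-66.3 °C). Soluble protein was quantified by TMT mass spectrometry relative to DMSO controls; the thermal stability score was transformed to a z-score; mean of n = 3 experiments.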
# lipoamide = compound: NC(=O)CCCCC1CCSS1 [lipoamide]; test: as above; details: HeLa, lipoamide concentration 100 µM
# Method: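 Cellular thermal proteome profiling in HeLa cells. Cells were treated with 100 µM lipoamide for 1 h, with or without 1 mM arsenate for a further 1 h, then heated to ten temperatures (37-66.3 °C), and soluble protein was quantified by TMT mass spectrometry relative to 0.1% DMSO controls. The thermal stability score (sum of log2 fold changes minus the abundance score) was transformed to a z-score; mean of n = 3 experiments.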
# [1] = arsenate co-treatment: 1 mM arsenate 1 h
# 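Also: each temperature applied for 3 min, abundance score taken as mean log2 fold change at the two lowest temperatures, z-score obtained by mean subtraction and division by SD.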
# Chain of UniProt P13010 (P13010 whole entry): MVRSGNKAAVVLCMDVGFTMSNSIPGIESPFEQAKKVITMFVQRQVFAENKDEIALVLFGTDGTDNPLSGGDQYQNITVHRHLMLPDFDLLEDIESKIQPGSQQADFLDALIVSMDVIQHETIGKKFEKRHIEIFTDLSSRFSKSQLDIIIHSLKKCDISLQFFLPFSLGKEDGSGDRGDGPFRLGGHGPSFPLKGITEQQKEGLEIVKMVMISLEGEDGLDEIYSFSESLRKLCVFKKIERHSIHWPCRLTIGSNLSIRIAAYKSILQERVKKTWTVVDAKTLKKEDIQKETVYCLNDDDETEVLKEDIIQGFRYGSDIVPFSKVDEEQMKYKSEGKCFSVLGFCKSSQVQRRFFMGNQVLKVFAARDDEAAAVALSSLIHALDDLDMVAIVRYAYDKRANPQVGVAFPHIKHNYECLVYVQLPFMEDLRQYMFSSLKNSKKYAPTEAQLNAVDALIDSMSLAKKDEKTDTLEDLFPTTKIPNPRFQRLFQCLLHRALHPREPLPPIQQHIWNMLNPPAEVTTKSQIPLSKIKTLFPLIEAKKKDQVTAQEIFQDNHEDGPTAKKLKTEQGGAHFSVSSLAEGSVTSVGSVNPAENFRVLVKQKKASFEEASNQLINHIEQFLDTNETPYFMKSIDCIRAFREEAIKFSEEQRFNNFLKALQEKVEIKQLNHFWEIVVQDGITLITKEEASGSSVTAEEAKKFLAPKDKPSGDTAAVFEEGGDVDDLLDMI
# Chain of UniProt O14981 (O14981 whole entry): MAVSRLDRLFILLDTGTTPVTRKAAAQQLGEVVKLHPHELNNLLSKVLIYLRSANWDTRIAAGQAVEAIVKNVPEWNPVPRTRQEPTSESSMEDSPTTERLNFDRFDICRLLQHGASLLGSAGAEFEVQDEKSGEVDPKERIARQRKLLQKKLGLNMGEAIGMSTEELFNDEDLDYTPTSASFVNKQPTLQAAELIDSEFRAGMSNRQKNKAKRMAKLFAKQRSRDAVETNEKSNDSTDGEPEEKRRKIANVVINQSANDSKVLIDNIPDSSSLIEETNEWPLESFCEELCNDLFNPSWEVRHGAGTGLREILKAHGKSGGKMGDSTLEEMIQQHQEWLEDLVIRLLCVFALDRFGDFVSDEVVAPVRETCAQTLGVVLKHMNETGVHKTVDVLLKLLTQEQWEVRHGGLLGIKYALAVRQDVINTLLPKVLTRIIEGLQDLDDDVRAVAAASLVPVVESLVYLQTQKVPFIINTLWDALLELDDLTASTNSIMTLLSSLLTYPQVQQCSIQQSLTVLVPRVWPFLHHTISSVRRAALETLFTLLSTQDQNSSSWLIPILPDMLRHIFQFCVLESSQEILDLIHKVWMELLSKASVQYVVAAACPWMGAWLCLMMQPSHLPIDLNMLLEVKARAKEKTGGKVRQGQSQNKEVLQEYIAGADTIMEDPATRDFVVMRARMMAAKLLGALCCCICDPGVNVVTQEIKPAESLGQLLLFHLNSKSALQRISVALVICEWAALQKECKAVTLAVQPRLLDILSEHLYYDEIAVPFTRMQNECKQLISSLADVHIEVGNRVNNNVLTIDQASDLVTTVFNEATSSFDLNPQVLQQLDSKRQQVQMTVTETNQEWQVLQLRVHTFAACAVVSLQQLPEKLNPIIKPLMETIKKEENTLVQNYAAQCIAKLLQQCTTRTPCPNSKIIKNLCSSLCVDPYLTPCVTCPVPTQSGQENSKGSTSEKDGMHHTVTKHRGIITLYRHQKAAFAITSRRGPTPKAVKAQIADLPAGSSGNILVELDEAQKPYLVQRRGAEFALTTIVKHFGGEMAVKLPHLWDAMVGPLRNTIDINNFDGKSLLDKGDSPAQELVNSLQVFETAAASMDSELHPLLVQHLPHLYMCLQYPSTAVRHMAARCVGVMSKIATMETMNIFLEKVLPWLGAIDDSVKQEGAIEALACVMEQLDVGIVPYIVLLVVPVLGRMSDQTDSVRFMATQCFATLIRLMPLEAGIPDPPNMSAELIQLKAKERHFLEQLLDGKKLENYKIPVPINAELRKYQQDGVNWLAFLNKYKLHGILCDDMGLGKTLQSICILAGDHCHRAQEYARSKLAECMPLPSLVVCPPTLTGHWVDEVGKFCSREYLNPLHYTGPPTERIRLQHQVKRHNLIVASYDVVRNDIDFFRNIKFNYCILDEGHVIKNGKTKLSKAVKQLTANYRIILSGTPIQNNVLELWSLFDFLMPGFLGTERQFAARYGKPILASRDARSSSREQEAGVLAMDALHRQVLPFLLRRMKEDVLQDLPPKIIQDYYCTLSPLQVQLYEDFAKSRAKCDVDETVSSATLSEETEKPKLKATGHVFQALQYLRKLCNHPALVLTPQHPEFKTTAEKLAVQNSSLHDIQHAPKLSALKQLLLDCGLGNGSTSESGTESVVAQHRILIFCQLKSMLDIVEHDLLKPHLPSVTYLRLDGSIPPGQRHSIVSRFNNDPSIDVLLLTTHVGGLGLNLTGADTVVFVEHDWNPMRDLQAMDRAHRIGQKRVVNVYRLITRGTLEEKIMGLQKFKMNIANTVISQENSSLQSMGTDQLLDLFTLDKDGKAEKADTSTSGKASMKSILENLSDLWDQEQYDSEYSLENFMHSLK
# Chain of UniProt Q00796 (Q00796 whole entry): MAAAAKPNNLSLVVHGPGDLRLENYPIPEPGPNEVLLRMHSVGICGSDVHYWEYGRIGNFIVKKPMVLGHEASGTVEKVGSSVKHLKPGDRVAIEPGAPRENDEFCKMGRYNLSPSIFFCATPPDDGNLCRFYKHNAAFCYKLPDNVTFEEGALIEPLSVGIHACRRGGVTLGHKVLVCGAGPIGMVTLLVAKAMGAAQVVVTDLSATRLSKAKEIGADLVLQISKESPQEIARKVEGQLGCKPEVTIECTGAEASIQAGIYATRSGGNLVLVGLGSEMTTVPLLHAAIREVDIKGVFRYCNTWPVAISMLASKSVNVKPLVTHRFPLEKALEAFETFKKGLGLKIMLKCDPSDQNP
# Chain of UniProt Q8WUQ7 (Q8WUQ7 whole entry): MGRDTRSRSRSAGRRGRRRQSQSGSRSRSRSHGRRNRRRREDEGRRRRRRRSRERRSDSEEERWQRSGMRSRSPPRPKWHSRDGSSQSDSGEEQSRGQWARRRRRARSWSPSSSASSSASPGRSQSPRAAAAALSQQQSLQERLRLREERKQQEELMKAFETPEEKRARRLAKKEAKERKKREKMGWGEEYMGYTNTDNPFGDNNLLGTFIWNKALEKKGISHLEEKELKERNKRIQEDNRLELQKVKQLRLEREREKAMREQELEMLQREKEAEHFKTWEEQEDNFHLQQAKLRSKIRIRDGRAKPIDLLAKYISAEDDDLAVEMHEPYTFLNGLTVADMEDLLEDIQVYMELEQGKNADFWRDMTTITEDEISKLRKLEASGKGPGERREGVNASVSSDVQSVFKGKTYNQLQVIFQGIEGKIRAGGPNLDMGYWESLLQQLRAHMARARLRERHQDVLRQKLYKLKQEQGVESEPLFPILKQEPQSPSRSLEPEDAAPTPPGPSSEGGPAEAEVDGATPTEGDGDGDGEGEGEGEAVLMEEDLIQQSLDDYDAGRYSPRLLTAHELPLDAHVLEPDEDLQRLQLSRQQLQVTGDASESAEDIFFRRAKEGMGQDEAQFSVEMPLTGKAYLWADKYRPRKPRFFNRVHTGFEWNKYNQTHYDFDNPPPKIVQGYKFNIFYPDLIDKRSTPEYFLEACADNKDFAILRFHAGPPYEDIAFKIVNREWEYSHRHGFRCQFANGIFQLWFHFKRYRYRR
# Chain of UniProt O95685 (O95685 whole entry): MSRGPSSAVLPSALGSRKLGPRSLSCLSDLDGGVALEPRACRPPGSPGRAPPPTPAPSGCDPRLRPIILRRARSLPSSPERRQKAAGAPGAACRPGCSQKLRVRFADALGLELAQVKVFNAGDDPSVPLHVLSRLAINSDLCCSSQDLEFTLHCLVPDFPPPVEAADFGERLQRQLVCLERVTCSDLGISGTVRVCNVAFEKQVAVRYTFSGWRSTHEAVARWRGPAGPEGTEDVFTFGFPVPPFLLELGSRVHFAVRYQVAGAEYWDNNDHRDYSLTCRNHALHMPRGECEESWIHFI
# Chain of UniProt Q4G176 (Q4G176 whole entry): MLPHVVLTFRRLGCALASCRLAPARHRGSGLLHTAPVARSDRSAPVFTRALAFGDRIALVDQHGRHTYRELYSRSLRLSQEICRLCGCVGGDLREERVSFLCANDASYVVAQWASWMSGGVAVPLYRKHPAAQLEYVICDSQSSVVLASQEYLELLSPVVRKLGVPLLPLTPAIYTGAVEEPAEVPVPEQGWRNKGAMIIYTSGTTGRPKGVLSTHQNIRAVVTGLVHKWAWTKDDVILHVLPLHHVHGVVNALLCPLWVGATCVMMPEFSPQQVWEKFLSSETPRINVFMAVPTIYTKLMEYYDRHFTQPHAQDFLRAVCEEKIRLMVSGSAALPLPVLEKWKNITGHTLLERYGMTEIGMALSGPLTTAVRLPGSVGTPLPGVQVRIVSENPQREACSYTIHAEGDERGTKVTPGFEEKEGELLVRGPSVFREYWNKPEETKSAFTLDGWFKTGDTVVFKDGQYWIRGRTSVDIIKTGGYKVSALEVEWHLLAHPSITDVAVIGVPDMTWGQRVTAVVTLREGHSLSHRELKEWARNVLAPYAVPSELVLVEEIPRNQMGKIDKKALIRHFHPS
# Chain of UniProt Q6IN84 (Q6IN84 whole entry): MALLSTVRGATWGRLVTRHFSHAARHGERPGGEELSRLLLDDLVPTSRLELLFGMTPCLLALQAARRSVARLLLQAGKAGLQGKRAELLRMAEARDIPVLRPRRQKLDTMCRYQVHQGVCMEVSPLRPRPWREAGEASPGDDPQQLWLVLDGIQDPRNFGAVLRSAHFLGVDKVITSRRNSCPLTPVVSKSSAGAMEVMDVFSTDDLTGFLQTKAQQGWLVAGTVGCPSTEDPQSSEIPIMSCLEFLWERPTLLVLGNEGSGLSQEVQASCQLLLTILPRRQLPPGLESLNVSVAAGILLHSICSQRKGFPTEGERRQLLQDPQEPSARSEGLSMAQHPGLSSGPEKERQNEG
# Chain of UniProt Q96FQ6 (Q96FQ6 whole entry): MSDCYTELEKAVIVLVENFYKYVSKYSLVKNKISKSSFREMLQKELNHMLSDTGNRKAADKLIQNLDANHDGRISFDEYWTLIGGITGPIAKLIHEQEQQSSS
Target,thermal stability z-score (potassium arsenate),thermal stability z-score (lipoamide; [1]),thermal stability z-score (lipoamide; arsenate co-treatment: none)
ATG13 (UniProt O75143),0.699,-0.00854,0.21
GOT1 (UniProt P17174),0.118,0.656,0.623
ERCC5 (UniProt P28715),0.401,0.121,0.0638
HPS6 (UniProt Q86YV9),-0.0451,0.00908,0.132
SEMA3B (UniProt Q13214),0.997,-1.02,-1.61
XRCC5 (UniProt P13010),-0.403,-0.555,0.584
IMPA1 (UniProt P29218),0.0144,0.595,0.776
HSPB1 (UniProt P04792),0.246,-1.04,-0.459
TBCD (UniProt Q9BTW9),0.705,-0.558,-0.301
GDPD3 (UniProt Q7L5L3),0.114,0.187,-0.422
DNAAF2 (UniProt Q9NVR5),-0.268,-0.15,-0.168
NDUFV3 (UniProt P56181),-0.157,0.238,0.504
FAM117B (UniProt Q6P1L5),0.314,-1.14,0.461
IFI16 (UniProt Q16666),-0.386,0.022,0.122
ZNF143 (UniProt P52747),0.0928,-0.135,-0.0231
GALNS (UniProt P34059),0.274,0.346,0.41
CACTIN (UniProt Q8WUQ7),-0.0248,-0.265,-0.163
CPOX (UniProt P36551),-0.525,0.526,-0.338
TUBB3 (UniProt Q13509),-0.447,0.871,0.131
TUT1 (UniProt Q9H6E5),-0.479,0.0998,-0.00913
FBXO4 (UniProt Q9UKT5),-0.473,-0.0696,0.534
PTPN1 (UniProt P18031),0.228,-1.02,-0.578
ITGA3 (UniProt P26006),0.402,0.122,0.207
CD63 (UniProt P08962),0.0332,0.764,0.402

Target,thermal stability z-score (potassium arsenate),thermal stability z-score (lipoamide; [1]),thermal stability z-score (lipoamide; arsenate co-treatment: none)
BTAF1 (UniProt O14981),-0.192,0.085,0.175
UBIAD1 (UniProt Q9Y5Z9),-0.362,-0.487,-0.317
S100A16 (UniProt Q96FQ6),0.517,1.33,1.29
GPCPD1 (UniProt Q9NPB8),2.8,0.65,0.136
CEBPZOS (UniProt A8MTT3),0.526,0.351,0.365
HCFC1 (UniProt P51610),-0.101,1.26,1.15
LPCAT4 (UniProt Q643R3),0.519,-0.953,0.367
MAD2L1 (UniProt Q13257),1.96,-0.109,-0.147
GORASP2 (UniProt Q9H8Y8),0.824,0.45,-0.749
TIMM17A (UniProt Q99595),0.164,0.133,-0.417
CLSTN1 (UniProt O94985),1.06,-0.443,0.255
MRM1 (UniProt Q6IN84),-0.991,-0.994,-0.349
VDAC3 (UniProt Q9Y277),0.848,0.0571,0.18
PDE1A (UniProt P54750),1.05,0.864,1.23
DUS3L (UniProt Q96G46),-0.458,-0.321,-0.548
HPDL (UniProt Q96IR7),1.13,1.09,0.497
ACSF3 (UniProt Q4G176),0.298,-0.68,0.39
PFKFB3 (UniProt Q16875),0.00649,-0.179,-0.149
HNRNPL (UniProt P14866),-2.57,0.204,0.05
SGK1 (UniProt O00141),0.187,0.0815,-0.0515
NDUFAB1 (UniProt O14561),0.86,1.77,-0.297
TNPO2 (UniProt O14787),0.809,-1.26,-0.726
UBAC1 (UniProt Q9BSL1),0.576,0.447,-0.0576
C4BPA (UniProt P04003),1.08,-5.7,-5.12

Target,thermal stability z-score (potassium arsenate),thermal stability z-score (lipoamide; [1]),thermal stability z-score (lipoamide; arsenate co-treatment: none)
CCDC167 (UniProt Q9P0B6),0.0429,-0.711,-1.16
GAN (UniProt Q9H2C0),-0.167,0.0625,-0.31
CAPN1 (UniProt P07384),-0.369,-0.0396,-0.213
LRRFIP2 (UniProt Q9Y608),1.07,1.31,1.11
RPL34 (UniProt P49207),-1.17,0.331,0.134
ELP3 (UniProt Q9H9T3),-0.259,0.0482,0.104
APEX2 (UniProt Q9UBZ4),-0.747,0.0959,0.209
SMAP1 (UniProt Q8IYB5),-0.139,-0.131,-0.152
RAB8A (UniProt P61006),0.332,0.0143,0.344
FLVCR1 (UniProt Q9Y5Y0),-0.43,-0.393,-0.367
FAM120A (UniProt Q9NZB2),0.686,-0.00535,-0.0221
SNU13 (UniProt P55769),1.62,-0.119,0.0598
PPP1R3D (UniProt O95685),-0.0465,-0.601,-0.982
LBR (UniProt Q14739),0.0853,-0.0763,-0.097
ELAVL2 (UniProt Q12926),-0.564,-0.19,-0.197
VAPA (UniProt Q9P0L0),-1.14,0.25,-0.0574
SORD (UniProt Q00796),-0.608,0.301,-0.192
SNX30 (UniProt Q5VWJ9),-0.275,-0.254,0.144
TOP2B (UniProt Q02880),-0.788,0.61,0.212
C9ORF142 (UniProt Q9BUH6),-0.706,-0.55,-0.635
ZDHHC17 (UniProt Q8IUH5),0.191,0.571,1.07
EFTUD2 (UniProt Q15029),-0.28,0.0587,-0.0524
PIN1 (UniProt Q13526),0.757,0.355,0.305
